Data published in ChEMBL document CHEMBL6120946, “From Hit to Lead: Discovery of First-In-Class Furanone Glycoside D228 Derived from Chimonanthus salicifolius for the Treatment of Inflammatory Bowel Disease” (J Med Chem, 2024).
pIC50: −log10 of the molar value. The source made the active and inactive calls. The calls are words filed in the database; no cut-off is given here.

Experiments:
[1] = Tmax in male C57 mouse at 5 mg/kg, po measured upto 24 hrs; assay type: ADME, organism-based; details: in vivo
[2] = AUC last in male C57 mouse at 1 mg/kg, iv measured upto 24 hrs; assay type: ADME, organism-based; details: in vivo
[3] = Half life in male C57 mouse at 1 mg/kg, iv measured upto 24 hrs; assay type: ADME, organism-based; details: in vivo
[4] = Apparent volume of distribution in male C57 mouse at 5 mg/kg, po measured upto 24 hrs; assay type: ADME, organism-based; details: in vivo
[5] = Selectivity ratio of CC50 for cytotoxicity against mouse Splenocyte to IC50 for immunosuppressive activity in mouse T-lymphocyte; assay type: toxicity; details: splenocytes (CC50) and T-lymphocytes (IC50)
[6] = Toxicity in male Kunming mouse assessed as effect on kidney at 100 to 500 mg/kg/day, po measured after 5 weeks by H and E staining based analysis; assay type: organism-based; details: in vivo, 840 h, dose 100-500 mg/kg/day
[7] = AUC infinity in male C57 mouse at 5 mg/kg, po measured upto 24 hrs; assay type: ADME, organism-based; details: in vivo
[8] = Toxicity in female Kunming mouse assessed as effect on heart to body weight ratio at 100 to 500 mg/kg/day, po measured after 5 weeks; assay type: organism-based; details: in vivo, 840 h, dose 100-500 mg/kg/day
[9] = Immunosuppressive activity in mouse T-lymphocyte assessed as reduction in concanavalin A-induced cell proliferation incubated for 48 hrs; assay type: functional, cell-based
[10] = Acute toxicity in female Kunming mouse assessed as effect on kidney 5 g/Kg, po measured after 5 weeks; assay type: organism-based; details: in vivo, 5000 mg/kg, 840 h
[11] = Toxicity in male Kunming mouse assessed as effect on lung to body weight ratio at 100 to 500 mg/kg/day, po measured after 5 weeks; assay type: organism-based; details: in vivo, 840 h, dose 100-500 mg/kg/day
[12] = Toxicity in male Kunming mouse assessed as effect on spleen at 100 to 500 mg/kg/day, po measured after 5 weeks by H and E staining based analysis; assay type: organism-based; details: in vivo, 840 h, dose 100-500 mg/kg/day
Mus musculus [13] = assay: Antiinflammatory activity in DSS-induced male C57BL/6 mouse model of inflammatory bowel disease assessed as amelioration of crypts disruption at 50 to 100 microM/Kg by H and E staining based analysis; assay type: functional, organism-based; details: dose 50-100 µM/Kg
[14] = Toxicity in male Kunming mouse assessed as effect on spleen to body weight ratio at 100 to 500 mg/kg/day, po measured after 5 weeks; assay type: organism-based; details: in vivo, 840 h, dose 100-500 mg/kg/day
[15] = AUC last in male C57 mouse at 5 mg/kg, po measured upto 24 hrs; assay type: ADME, organism-based; details: in vivo
[16] = Oral bioavailability in male C57 mouse at 5 mg/kg measured upto 24 hrs; assay type: ADME, organism-based; details: in vivo
[17] = Acute toxicity in male Kunming mouse assessed as effect on spleen 5 g/Kg, po measured after 5 weeks; assay type: organism-based; details: in vivo, 5000 mg/kg, 840 h
[18] = Toxicity in female Kunming mouse assessed as effect on kidney to body weight ratio at 100 to 500 mg/kg/day, po measured after 5 weeks; assay type: organism-based; details: in vivo, 840 h, dose 100-500 mg/kg/day
[19] = Selectivity ratio of CC50 for cytotoxicity against mouse Splenocyte to IC50 for immunosuppressive activity in mouse B-lymphocyte; assay type: toxicity; details: splenocytes (CC50) and B-lymphocytes (IC50)
Mus musculus [20] = assay: Antiinflammatory activity in DSS-induced male C57BL/6 mouse model of inflammatory bowel disease assessed as recovery from body weight loss at 40 mg/kg/day, po measured after 7 days relative to control; assay type: functional; details: time 7 day
[21] = Toxicity in female Kunming mouse assessed as effect on CREA level in serum at 100 to 500 mg/kg/day, po measured after 5 weeks; assay type: organism-based; details: in vivo, 840 h, dose 100-500 mg/kg/day
[22] = Cmax in male C57 mouse at 5 mg/kg, po measured upto 24 hrs; assay type: ADME, organism-based; details: in vivo
[23] = AUC infinity in male C57 mouse at 1 mg/kg, iv measured upto 24 hrs; assay type: ADME, organism-based; details: in vivo
B-cell line = assay: Immunosuppressive activity in mouse B-lymphocyte assessed as reduction in LPS-induced cell proliferation incubated for 48 hrs; assay type: functional, cell-based
[24] = Toxicity in male Kunming mouse assessed as effect on body weight loss at 100 to 500 mg/kg/day, po measured after 5 weeks; assay type: organism-based; details: in vivo, 840 h, dose 100-500 mg/kg/day
Mus musculus [25] = assay: Antiinflammatory activity in DSS-induced male C57BL/6 mouse model of inflammatory bowel disease assessed as decrease in p38 phosphorylation level at 50 to 100 microM/Kg by Western blot analysis; assay type: functional, organism-based; details: dose 50-100 µM/Kg
[26] = Toxicity in male Kunming mouse assessed as change in food intake at 100 to 500 mg/kg/day, po measured after 5 weeks; assay type: organism-based; details: in vivo, 840 h, dose 100-500 mg/kg/day
[27] = Cytotoxicity against mouse Splenocyte by MTT assay; assay type: toxicity, cell-based; details: splenocytes
[28] = Half life in male C57 mouse at 5 mg/kg, po measured upto 24 hrs; assay type: ADME, organism-based; details: in vivo
Mus musculus [29] = assay: Antiinflammatory activity in DSS-induced male C57BL/6 mouse model of inflammatory bowel disease assessed as recovery in colon length at 40 mg/kg/day, po measured after 7 days relative to control; assay type: functional; details: time 7 day
[30] = Toxicity in female Kunming mouse assessed as effect on body weight loss at 100 to 500 mg/kg/day, po measured after 5 weeks; assay type: organism-based; details: in vivo, 840 h, dose 100-500 mg/kg/day
[31] = MRT last in male C57 mouse at 1 mg/kg, iv measured upto 24 hrs; assay type: ADME, organism-based; details: in vivo
Mus musculus [32] = assay: Antiinflammatory activity in DSS-induced male C57BL/6 mouse model of inflammatory bowel disease assessed as recovery from body weight loss at 40 mg/kg/day, po measured after 7 days; assay type: functional, organism-based; details: time 7.0 day
[33] = Clearance in male C57 mouse at 1 mg/kg, iv measured upto 24 hrs; assay type: ADME, organism-based; details: in vivo
[34] = Clearance in male C57 mouse at 5 mg/kg, po measured upto 24 hrs; assay type: ADME, organism-based; details: in vivo
[35] = Toxicity in female Kunming mouse assessed as effect on ALP level in serum at 100 to 500 mg/kg/day, po measured after 5 weeks; assay type: organism-based; details: in vivo, 840 h, dose 100-500 mg/kg/day
[36] = Toxicity in female Kunming mouse assessed as effect on TP level in serum at 100 to 500 mg/kg/day, po measured after 5 weeks; assay type: organism-based; details: in vivo, 840 h, dose 100-500 mg/kg/day
[37] = MRT last in male C57 mouse at 5 mg/kg, po measured upto 24 hrs; assay type: ADME, organism-based; details: in vivo
[38] = Apparent volume of distribution in male C57 mouse at 1 mg/kg, iv measured upto 24 hrs; assay type: ADME, organism-based; details: in vivo, read-out: Vz
Mus musculus [39] = assay: Antiinflammatory activity in DSS-induced male C57BL/6 mouse model of inflammatory bowel disease assessed as increase in colon length at 30 mg/kg/day, po via gavage measured upto 14 days relative to control; assay type: functional; details: time <= 14 day
Mus musculus [40] = assay: Antiinflammatory activity in DSS-induced male C57BL/6 mouse model of inflammatory bowel disease assessed as upregulation of ZO-1 expression in colon at 50 to 200 microM/Kg by immunohistochemical analysis; assay type: functional, organism-based; details: dose 50-200 µM/Kg
Mus musculus [41] = assay: Antiinflammatory activity in DSS-induced male C57BL/6 mouse model of inflammatory bowel disease assessed as amelioration of crypts disruption at 50 to 200 microM/Kg by H and E staining based analysis; assay type: functional, organism-based; details: dose 50-200 µM/Kg
Mus musculus [42] = assay: Antiinflammatory activity in DSS-induced male C57BL/6 mouse model of inflammatory bowel disease assessed as amelioration of infiltration of inflammatory cells at 50 to 200 microM/Kg by H and E staining based analysis; assay type: functional, organism-based; details: dose 50-200 µM/Kg
Mus musculus [43] = organism: Mus musculus; assay: Antiinflammatory activity in DSS-induced male C57BL/6 mouse model of inflammatory bowel disease assessed as reduction in JNK level; assay type: functional, organism-based

CC(=O)OC[C@H]1O[C@@H](OC2=C(C)OC(=C(C)C)C2=O)[C@H](OC(C)=O)[C@@H](OC(C)=O)[C@@H]1OC(C)=O
Tmax [1]: 19.8 min
AUC(0-t) at 24 h [2]: 32.3 ng·h/mL
half-life [3]: 16.2 min
Vz [4]: 137.3 L/kg
selectivity ratio [5]: 1.44
Activity [6]: Non-toxic
AUC(0-inf) [7]: 93.6 ng·h/mL
Activity [8]: Non-toxic
pIC50 [9]: 4.37
Activity [10]: Non-toxic
Activity [11]: Non-toxic
Activity [12]: Non-toxic
Activity (Mus musculus [13]): Active
Activity [14]: Non-toxic
AUC(0-t) at 24 h [15]: 58.3 ng·h/mL
bioavailability [16]: 36.1%
Activity [17]: Non-toxic
Activity [18]: Non-toxic
selectivity ratio [19]: 22
Activity (Mus musculus [20]): 27%
Activity [21]: Non-toxic
Cmax [22]: 48.4 ng/mL
AUC(0-inf) [23]: 44 ng·h/mL
pIC50 (B-cell line): 5.50
Activity [24]: Non-toxic
Activity (Mus musculus [25]): Active
Activity [26]: Non-toxic
CC50 [27]: 60 µM
half-life ([28]; male, C57, mouse): 115 min
Activity (Mus musculus [29]): 33.3%
Activity [30]: Non-toxic
MRT last at 24 h [31]: 10.2 min
Activity (Mus musculus [32]): Active
clearance [33]: 397 mL/min/kg
CL/F ([34]; male, C57, mouse): 915 mL/min/kg
Activity [35]: Non-toxic
Activity [36]: Non-toxic
MRT last at 24 h [37]: 63.6 min
Vd [38]: 9.25 L/kg

CC(C)=C1OC(C)=C(O[C@@H]2O[C@H](CO)[C@@H](O)[C@H](O)[C@H]2O)C1=O
Tmax [1]: 15 min
AUC(0-t) at 24 h [2]: 592 ng·h/mL
half-life [3]: 27 min
Vz [4]: 29.6 L/kg
selectivity ratio [5]: 0.63
AUC(0-inf) [7]: 180 ng·h/mL
pIC50 [9]: 3.51
Activity (Mus musculus [39]): 65.6%
AUC(0-t) at 24 h [15]: 177 ng·h/mL
Activity (Mus musculus [40]): Active
Activity (Mus musculus [41]): Active
bioavailability [16]: 6%
selectivity ratio [19]: 1.9
Activity (Mus musculus [20]): 45.6%
Cmax [22]: 284 ng/mL
AUC(0-inf) [23]: 594 ng·h/mL
pIC50 (B-cell line): 4.07
CC50 [27]: 149 µM
Activity (Mus musculus [42]): Active
t1/2 ([28]; mouse, po, 5 mg/kg, 24 h): 332 min
Activity (Mus musculus [29]): 50.5%
MRT last at 24 h [31]: 19.8 min
Activity (Mus musculus [32]): Active
clearance [33]: 28.5 mL/min/kg
CL ([34]; mouse, po, 5 mg/kg, 24 h): 475.7 mL/min/kg
Activity (Mus musculus [43]): Active
MRT last at 24 h [37]: 254 min
Vd [38]: 1.09 L/kg
